Experiment [1] addresses JAK1 (recombinant purified GST-tagged catalytic domain) (Homo sapiens (Human), UniProt P23458).
The target of experiment [2] is JAK2 (recombinant purified GST-tagged catalytic domain) (Homo sapiens (Human), UniProt O60674).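 Also: biochemical JAK kinase assay with HTRF detection.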
JAK2 (recombinant purified GST-tagged catalytic domain), sequence (O60674 849-1124): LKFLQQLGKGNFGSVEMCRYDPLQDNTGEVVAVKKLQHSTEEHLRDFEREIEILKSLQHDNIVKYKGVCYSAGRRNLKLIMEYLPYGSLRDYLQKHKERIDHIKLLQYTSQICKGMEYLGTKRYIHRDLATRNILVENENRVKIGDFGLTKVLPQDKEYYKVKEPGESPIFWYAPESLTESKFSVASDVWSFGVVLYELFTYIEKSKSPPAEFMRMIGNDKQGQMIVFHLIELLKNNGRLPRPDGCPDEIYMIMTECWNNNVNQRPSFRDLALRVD

JAK1 (recombinant purified GST-tagged catalytic domain), sequence (P23458 875-1153): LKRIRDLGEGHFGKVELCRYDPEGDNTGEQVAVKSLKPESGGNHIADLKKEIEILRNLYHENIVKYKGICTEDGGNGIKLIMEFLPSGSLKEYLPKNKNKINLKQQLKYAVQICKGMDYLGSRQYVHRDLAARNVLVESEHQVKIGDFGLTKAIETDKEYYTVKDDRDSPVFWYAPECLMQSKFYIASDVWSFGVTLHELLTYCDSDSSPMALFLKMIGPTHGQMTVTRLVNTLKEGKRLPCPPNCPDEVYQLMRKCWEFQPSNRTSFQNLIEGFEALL

The term IC50 denotes the midpoint of a concentration-inhibition curve. As to `CC1(C)CC[C@H](C#N)[C@@H](n2cc(C(N)=O)c(Nc3ccccc3)n2)C1` (mixture of isomers) [Example 11-1, 1-{[(1S,2S) and (1R,2R)]-2-Cyano-5,5-dimethylcyclohexyl}-3-(phenylamino)-1H-pyrazole-4-carboxamide], the IC50 worked out at 54 nM in experiment [1] and 176 nM in experiment [2].
On to `CC1(C)CC[C@@H](C#N)[C@@H](n2cc(C(N)=O)c(Nc3ccccc3)n2)C1` (mixture of isomers) [Example 11-2, 1-{[(1S,2R) and (1R,2S)]-2-Cyano-5,5-dimethylcyclohexyl}-3-(phenylamino)-1H-pyrazole-4-carboxamide], for which the IC50 in experiment [1] worked out at 11 nM; in experiment [2] it was 50 nM.
The corresponding values for `CC(C)(C)OC(=O)NCC1CC[C@@H](C#N)[C@@H](n2cc(C(N)=O)c(Nc3ccc(F)cc3)n2)C1` (mixture of isomers) [Example 11-8, tert-butyl {[(3S,4R) and (3R,4S)]-3-{4-carbamoyl-3-[(4-fluorophenyl)amino]-1H-pyrazol-1-yl}-4-cyanocyclohexyl]methyl}carbamate] are 158 nM and more than 1500 nM.
In the case of `CC(C)(C)OC(=O)C1CC[C@H](C#N)[C@@H](n2cc(C(N)=O)c(Nc3ccccc3)n2)C1` (mixture of isomers) [Example 12-1, (3S,4S and 3R,4R)-tert-butyl 3-(4-carbamoyl-3-(phenylamino)-1H-pyrazol-1-yl)-4-cyanocyclohexanecarboxylate], the IC50 in experiment [1] was determined as 7 nM; in experiment [2] it was 50 nM.
Turning to `CC(C)(C)OC(=O)C1CC[C@@H](C#N)[C@@H](n2cc(C(N)=O)c(Nc3ccccc3)n2)C1` (mixture of isomers) [Example 12-2, (3S,4R and 3R,4S)-tert-butyl 3-(4-carbamoyl-3-(phenylamino)-1H-pyrazol-1-yl)-4-cyanocyclohexanecarboxylate], the IC50 in experiment [1] is 257 nM; in experiment [2], more than 1500 nM.
As to `N#C[C@H]1CCCCC1n1cc(C(N)=O)c(Nc2ccc(S(=O)(=O)C(F)F)c(CO)c2)n1` (mixture of isomers) [Example 17-64, 1-[(1S,2S and 1R,2R )-2-cyanocyclohexyl]-3-({4-[(difluoromethyl)sulfonyl]-3-(hydroxymethyl)phenyl}amino)-1H-pyrazole-4-carboxamide], the IC50 in experiment [1] was 2 nM; in experiment [2] it was 14 nM.
On to `C[C@]1(C#N)CC[C@@H](F)C[C@@H]1n1cc(C(N)=O)c(Nc2ccc(F)cc2)n1` (mixture of isomers) [Example 19-1, 1-((1S,2S,5R and 1R,2R,5S)-2-cyano-5-fluoro-2-methylcyclohexyl)-3-((4-fluorophenyl)amino)-1H-pyrazole-4-carboxamide], for which the IC50 turned out to be 3 nM in experiment [1] and 8 nM in experiment [2].
For the compound `C[C@]1(C#N)CCCC[C@@H]1n1cc(C(N)=O)c(Nc2ccc(F)cc2)n1` (mixture of isomers) [Example 19-2, 1-((1S,2S and 1R,2R)-2-cyano-2-methylcyclohexyl)-3-((4-fluorophenyl)amino)-1H-pyrazole-4-carboxamide], the IC50 was found to be 4 nM in experiment [1] and 11 nM in experiment [2].
Taken in the same sequence, the figures for `N#C[C@H]1CC(F)CC[C@@H]1n1cc(C(N)=O)c(Nc2ccccc2)n1` (mixture of isomers) [Example 22-1, 1-[(1S,2S and 1R,2R)-2-Cyano-4-fluorocyclohexyl]-3-(phenylamino)-1H-pyrazole-4-carboxamide] were 4 nM and 28 nM.
Take `CS(=O)(=O)N[C@H]1CC[C@H](n2cc(C(N)=O)c(Nc3ccc(F)cc3)n2)[C@@H](C#N)C1` (mixture of isomers) [Example 38-1, 1-{(1S,2S,4S and 1R,2R,4R)-2-cyano-4-[(methylsulfonyl)amino]cyclohexyl}-3-[(4-fluorophenyl)amino]-1H-pyrazole-4-carboxamide]: the IC50 was found to be 2 nM in experiment [1] and 14 nM in experiment [2].
With `CS(=O)(=O)N[C@@H]1CC[C@H](n2cc(C(N)=O)c(Nc3ccc(F)cc3)n2)[C@@H](C#N)C1` (mixture of isomers) [Example 38-2, 1-{(1S,2S,4R and 1R,2R,4S)-2-cyano-4-[(methylsulfonyl)amino]cyclohexyl}-3-[(4-fluorophenyl)amino]-1H-pyrazole-4-carboxamide], the IC50 in experiment [1] was determined as 0.9 nM; in experiment [2] it was 12 nM.
On to `CC(C)(C)OC(=O)NCC1CC[C@H](C#N)[C@@H](n2cc(C(N)=O)c(Nc3ccc(F)cc3)n2)C1` (single isomer, unassigned) [Example 11-9, tert-butyl {[(1R or S 3S,4S) and (1S or R, 3R, 4R)]-3-{4-carbamoyl-3-[(4-fluorophenyl)amino]-1H-pyrazol-1-yl}-4-cyanocyclohexyl]methyl}carbamate], for which the IC50 is 21 nM in experiment [1] and 434 nM in experiment [2].
The corresponding values for `CC(C)(C)OC(=O)NCC1CC[C@H](C#N)[C@@H](n2cc(C(N)=O)c(Nc3ccc(F)cc3)n2)C1` (single isomer, unassigned) [Example 11-10, tert-butyl {[(1S or R,3S,4S) and (1R or S,3R,4R)]-3-{4-carbamoyl-3-[(4-fluorophenyl)amino]-1H-pyrazol-1-yl}-4-cyanocyclohexyl]methyl}carbamate] are 110 nM and 1300 nM.
`N#C[C@H]1CCCC[C@@H]1n1cc(C(N)=O)c(Nc2cc(Cl)cc(Cl)c2)n1` (single isomer, unassigned) [Example 17-54, 1-[(1S,2S or 1R, 2R)-2-cyanocyclohexyl]-3-[(3,5-dichlorophenyl)amino]-1H-pyrazole-4-carboxamide]: the IC50 in experiment [1] is 18 nM; in experiment [2] it was 119 nM.
As to `N#C[C@H]1C[C@H](N2CCC2)CC[C@@H]1n1cc(C(N)=O)c(Nc2ccc(OC(F)F)nc2)n1` (single isomer, unassigned) [Example 28-2, 1-[(1S,2S,4R or 1R,2R,4S)-4-(azetidin-1-yl)-2-cyanocyclohexyl]-3-{[6-(difluoromethoxy)pyridin-3-yl]amino}-1H-pyrazole-4-carboxamide], the IC50 stood at 4 nM in experiment [1] and 67 nM in experiment [2].
As to `N#C[C@H]1C[C@@H](N2CCC2)CC[C@@H]1n1cc(C(N)=O)c(Nc2ccc(OC(F)F)nc2)n1` (single isomer, unassigned) [Example 28-3, 1-[(1S,2S,4S or 1R,2R,4R)-4-(azetidin-1-yl)-2-cyanocyclohexyl]-3-{[6-(difluoromethoxy)pyridin-3-yl]amino}-1H-pyrazole-4-carboxamide], the IC50 was 5 nM in experiment [1] and 87 nM in experiment [2].
For the compound `N#C[C@H]1C[C@@H](NCC(F)F)CC[C@@H]1n1cc(C(N)=O)c(Nc2ccc(S(=O)(=O)C(F)F)cc2)n1` (single isomer, unassigned) [Example 28-126, 1-{(1S,2S,4S or 1R,2R,4R )-2-cyano-4-[(2,2-difluoroethyl)amino]cyclohexyl}-3-({4-[(difluoro-methyl)sulfonyl]phenyl}amino)-1H-pyrazole-4-carboxamide], the IC50 in experiment [1] is 0.5 nM; in experiment [2], 5 nM.
In the case of `N#C[C@H]1C[C@@H](NCC2(O)CC2)CC[C@@H]1n1cc(C(N)=O)c(Nc2ccc(Cl)cc2)n1` (single isomer, unassigned) [Example 28-220, 3-[(4-chlorophenyl)amino]-1-[(1S,2S,4S or 1R,2R,4R)-2-cyano-4-{[(1-hydroxycyclo-propyl)methyl]amino}cyclohexyl]-1H-pyrazole-4-carboxamide], the IC50 in experiment [1] is 2 nM; in experiment [2], 30 nM.
The corresponding values for `CC1(C)CN(C(=O)[C@H]2CC[C@H](n3cc(C(N)=O)c(Nc4ccc(Cl)cc4)n3)[C@@H](C#N)C2)C1` (single isomer, unassigned) [Example 35-1, 3-(4-chlorophenylamino)-1-((1S,2S,4S or 1R,2R,4R)-2-cyano-4-(3,3-dimethylazetidine-1-carbonyl)cyclohexyl)-1H-pyrazole-4-carboxamide] are 6 nM and 45 nM.
Turning to `CC1(C)CN(C(=O)[C@@H]2CC[C@@H](n3cc(C(N)=O)c(Nc4ccc(Cl)cc4)n3)[C@H](C#N)C2)C1` (single isomer, unassigned) [Example 35-2, 3-(4-chlorophenylamino)-1-((1R,2R,4R or 1S,2S,4S)-2-cyano-4-(3,3-dimethylazetidine-1-carbonyl)cyclohexyl)-1H-pyrazole-4-carboxamide], the IC50 in experiment [1] came out at 9 nM; in experiment [2], 290 nM.
The corresponding values for `N#C[C@@H]1CCC2(C[C@H]1n1cc(C(N)=O)c(Nc3ccccc3)n1)OCCO2` (single isomer, unassigned) [Example 45-1, 1-[(7R,8R or 7S,8S)-8-Cyano-1,4-dioxaspiro[4.5]dec-7-yl]-3-(phenylamino)-1H-pyrazole-4-carboxamide] are 44 nM and 235 nM.
Consider `N#C[C@@H]1CCC2(C[C@@H]1n1cc(C(N)=O)c(Nc3ccccc3)n1)OCCO2` (single isomer, unassigned) [Example 45-2, 1-[(7S,8R or 7R,8S)-8-Cyano-1,4-dioxaspiro[4.5]dec-7-yl]-3-(phenylamino)-1H-pyrazole-4-carboxamide], for which the results for the IC50 in experiment [1] and in experiment [2] were 0.85 nM and 4 nM, respectively.
As for `N#C[C@@H]1CCC2(C[C@H]1n1cc(C(N)=O)c(Nc3ccccc3)n1)OCCO2` (single isomer, unassigned) [Example 45-3, 1-[(7R,8R or 7S,8S)-8-Cyano-1,4-dioxaspiro[4.5]dec-7-yl]-3-(phenylamino)-1H-pyrazole-4-carboxamide], the IC50 in experiment [1] came to 147 nM; in experiment [2], 308 nM.
Consider `N#C[C@@H]1CCC2(C[C@@H]1n1cc(C(N)=O)c(Nc3ccccc3)n1)OCCO2` (single isomer, unassigned) [Example 45-4, 1-[(7S,8R or 7R,8S)-8-Cyano-1,4-dioxaspiro[4.5]dec-7-yl]-3-(phenylamino)-1H-pyrazole-4-carboxamide], for which the IC50 in experiment [1] was 13 nM; in experiment [2], 59 nM.
On to `N#CC1CCC2(CC1n1cc(C(N)=O)c(Nc3ccccc3)n1)OCCO2` (centres unmarked) [Example 2-3, 1-(8-cyano-1,4-dioxaspiro[4.5]dec-7-yl)-3-(phenylamino)-1H-pyrazole-4-carboxamide], for which the IC50 in experiment [1] came out at 9 nM; in experiment [2], 47 nM.

(Values after US8962608B2, “Cycloalkylnitrile pyrazole carboxamides as janus kinase inhibitors” (Merck Sharp & Dohme Corp., priority 2011, dated 2015).)
